Reference: patent US20240180898A1, “USE OF AMINOTHIAZOLE DERIVATIVE IN TREATMENT OF IMMUNE INFLAMMATION” (INNAMUNE PHARMACEUTICAL CO. LTD., priority 2021, published 2024)

What was measured:
[1] = system: middle cerebral artery occlusion (MCAO) model; assay: reperfusion injury after acute cerebral infarction (MCAO model); type: in vivo, mouse; conditions: 15 mg/kg intravenously, 1 hour ischemia, 24 hours reperfusion
Procedure: Preparation and grouping of a mouse model of reperfusion injury after acute cerebral infarction: Model preparation: Adult male C57BL/6 mice (8-10 weeks old, weighing 22-25 g) were fasted for 8 hours before surgery and allowed to drink freely. Intraperitoneal injection of 1% pentobarbital sodium solution for anesthesia. […]

dry eye disease model = assay: experimental dry eye (EDE) model; type: in vivo, mouse; conditions: day 9, vs EDE group
From the text: Dry eye disease was induced by placing mice in a experimental dry eye (EDE) condition and administering scopolamine to maximize ocular surface dryness. Animals were divided into three groups: non-EDE group, EDE group and EDE+TJ-5 group. Mice were euthanized on day 9 for cellular and molecular analysis.

[2] = system: H22 hepatocellular carcinoma cells; assay: subcutaneous H22 hepatocellular carcinoma implantation; type: in vivo, mouse; conditions: balb/c mice
From the text: H22 hepatocellular carcinoma cells were subcutaneously implanted in balb/c mice and allowed to grow freely. The animals were divided into two groups: the INNA1605 (TJ-M2010-5) group and the non-drug control group.

[3] = system: bone marrow derived macrophages; assay: bone marrow derived macrophage pyroptosis model (LPS + ATP); type: cell-based
Procedure: Preparation and grouping of bone marrow derived macrophage pyroptosis model:
Model preparation: After LPS (500 ng/ml) stimulation of bone marrow derived macrophages for 6 hours, ATP (5 mmol/L) stimulation for 2 hours, followed by cell collection and supernatant detection.
The experiment was divided into four groups, namely: • Control group (normal cell culture medium), • Model group (with LPS and ATP stimulation added to the culture medium), • TJ-5 (10 μmol/L) group (2 hours before LPS stimulation, administer 10 μmol/L TJ-5 drug stimulation), • TJ-5 (30 μmol/L) group (2 hours before LPS stimulation, administer 30 μmol/L TJ-5 drug stimulation).
Collect cells and their supernatant for detection at the endpoint of the experiment.

[4] = system: Balb/c mouse psoriasis model; assay: mouse psoriasis model (imiquimod cream); type: in vivo
From the text: Preparation and grouping of mouse […] model:
Model preparation: Male Balb/c mice aged 6-8 weeks were shaved on the back skin and coated with 5% imiquimod (IMQ) cream once a day for 7 consecutive days.
The experiment was divided into three groups, namely: • Psoriasis control group (without any treatment, psoriasis model group), TJ-M2010-5 systemic medication group (intraperitoneal injection), and TJ-M2010-5 local medication group (ointment group). The specific handling method is as follows: • TJ-M2010-5 systemic medication group: A Balb/c mouse psoriasis model was taken and TJ- M2010-5 was injected intraperitoneally at a dose of 50 mg/kg, once a day, for 2 consecutive weeks. • TJ-M2010-5 local medication group: A Balb/c mouse psoriasis model was taken, and 1% TJ-M2010-5 ointment was applied on the skin, once a day, for 2 consecutive weeks.

heart grafts = assay: allogeneic heart transplantation, Balb/c to B6; type: in vivo, mouse
From the text: (§1) The paired mice for transplantation: The donor mouse is a balb/c mouse; The recipient mouse is B6 mouse. Transplant the donor's skin or heart separately to the recipient. After skin transplantation, INNA1605 (TJ-M2010-5) was continuously used for 2 weeks and then stopped. About 38% of the transplanted skin was permanently non-rejection. After administering TJ-M2010-5 for two weeks after allogeneic heart transplantation, 60% of the heart grafts were permanently not rejected. In these surviving recipient mice (non-rejection), the hearts of the same donor mice were transplanted for a second time without any treatment. The result was 100% non-rejection of the heart, confirming the development of immune tolerance against the same antigen (see FIGS. 34 and 35).

transplanted skin = assay: allogeneic skin transplantation, Balb/c to B6; type: in vivo, mouse; conditions: used for 2 weeks then stopped
From the text: as §1

[5] = TJ-5 10 or 30 μmol/L before LPS + ATP

O=C(CCN1CCN(Cc2ccccc2)CC1)Nc1nc(-c2ccccc2)cs1 [INNA1605, 3-(4-benzylpiperazine-1-yl)-N-(4-phenylthiazole-2-yl) propionamide]
reduction of infarct volume of acute cerebral infarction [1]: 80%
corneal fluorescein staining score (dry eye disease model): significantly lower corneal fluorescein staining score
expression of IL-1β, TNF-α, MCP-1 and IL-6 in corneal tissues (dry eye disease model): reduced expression
tumor size [2]: significantly smaller than that in the control group
apoptosis (PI+ cells) of bone marrow derived macrophages ([3]; TJ-5 10 or 30 μmol/L 2 hours before LPS 500 ng/ml 6 hours + ATP 5 mmol/L 2 hours): can inhibit the apoptosis of bone marrow derived macrophages induced by LPS and ATP
activation and cleavage of GSDMD [3, 5]: significantly inhibits the activation and cleavage of GSDMD
assembly and activation of NLRP3 inflammasomes [3, 5]: can block the assembly and activation of NLRP3 inflammasomes
classical and non classical cell pyroptosis pathways [3, 5]: inhibit both classical and non classical cell pyroptosis pathways
maturation and release of Pro-IL-1b and Pro-IL-18 [3, 5]: inhibiting the maturation and release
secretion of LDH in cell culture supernatant [3, 5]: reduce the secretion of LDH
secretion of various inflammatory factors [3, 5]: reducing the secretion of various inflammatory factors
therapeutic effect, local medication ([4]; 1% ointment on the skin once a day, 2 weeks): excellent therapeutic effects, with a significant improvement after 7 days and a cure effect achieved after 14 days
infiltration and proliferation of mast cells ([4]; H&E and C-kit (CD117) staining): inhibits the infiltration and proliferation of mast cells
abnormally thickened stratum corneum ([4]; after treatment): can basically restore normal tissue structure after treatment
inflammatory cells in the skin ([4]; both treatments (systemic and local)): significantly reduce inflammatory cells in the skin
imbalance of spleen T cells and their subsets ([4]; flow cytometry): correct the imbalance of spleen T cells and their subsets
therapeutic effect, systemic medication ([4]; intraperitoneal 50 mg/kg once a day, 2 weeks): excellent therapeutic effects, with a significant improvement after 7 days and a cure effect achieved after 14 days
excessive keratinization and proliferation of skin keratinocytes ([4]; mouse, in vivo): inhibit excessive keratinization and proliferation of skin keratinocytes
expression of CD80 ([4]; mouse, in vivo): significantly reduces the expression of CD80
expression of intradermal lymphokines (IL-1beta, IL-6, IL-17a, TNF-alpha, MyD88 mRNA, Cxcl2 mRNA) ([4]; mouse, in vivo): inhibits the expression of intradermal lymphokines
skin thickness ([4]; mouse, in vivo): significant thinning of skin thickness
splenomegaly ([4]; mouse, in vivo): can improve splenomegaly
MAPK signaling pathway ([4]; psoriasis model skin): inhibits the MAPK signaling pathway
synthesis and secretion of inflammatory factors ([4]; skin): inhibiting the synthesis and secretion of inflammatory factors
immune cell infiltration and activation (macrophages, neutrophils, mast cells) ([4]; skin tissue): a reduction in immune cell infiltration and activation
heart grafts permanently not rejected (heart grafts; administered for two weeks): 60%
non-rejection of second heart of the same donor mice (heart grafts; surviving recipient mice, second transplant without any treatment): 100%
transplanted skin permanently non-rejection (transplanted skin): About 38%
